Laboratory results taken from patent US20250248998A1, “LRRK2 Inhibitors” (Brenig Therapeutics, Inc., priority 2022, published 2025).

Key:
LRRK2 WT [1] = molecular target: T1, LRRK2 WT (Homo sapiens, UniProt Q5S007); experiment: Enzymatic activity inhibition against LRRK2 WT (ADP-Glo kinase assay, LRRKtide substrate); format: biochemical; set-up: purchased SignalChem Biotech, Inc. L10-11G-10; conditions: recombinant LRRK2 WT 36 nM, ATP, 1 h at rt, average Ki
Protocol: Example B. Primary Assays Used to Determine Potency of the LRRK2 Inhibition
Assay for Determining Enzymatic Activity Inhibition Against LRRK2 WT.
Compound activity was determined using recombinant LRRK2 WT protein (SignalChem Biotech, Inc., Cat #L10-11G-10) and LRRKtide substrate (SignalChem Biotech, Inc., Cat #L10-58) in an in vitro enzymatic reaction. The enzymatic reaction was carried out in assay buffer (40 mM TRIS-HCl pH 7.4, 20 mM MgCl2, 0.05 mM DTT, 0.1 mg/mL BSA). The compounds were dispensed into a 384 well Diamond Well Plate (Axigen, Cat #P-384-120SQ-C-S) using the Biomek FX liquid handling system at 80× solutions of compounds in DMSO. The 2× Protein-Substrate mix (final concentration 36 nM of LRRK2 WT and 0.8 μg/μL of LRRKtide) was prepared in the 1× Assay buffer and 4 μL of mixture per well was added into the 384-well white Reaction plate with NBS (Corning, Cat #CLS4513). The 4 μL of LRRKtide substrate w/o LRRK2 WT in the 1× buffer was used for a negative control. Plates were centrifuged for 1 min at 200 g. Next the compounds were added to Reaction plate using Biomek station via following steps: 1 μL of 80× compounds (in DMSO) were mixed thoroughly with 39 μL of 2×10 μM ATP in Assay Buffer, then 4 μL of this mixture was added to Reaction plate with 4 μL of Protein-Substrate mix. Plates were centrifuged for 1 min at 200 g and incubated for 1 hour at rt. Then, 4 μL per well of ADP-Glo reagent (Promega, ADP-Glo™ Kinase Assay, Cat #V9102) was added. Plates were incubated for 30 minutes at rt. Then, 8 μL per well of Kinase detection reagent (Promega, ADP-Glo™ Kinase Assay, Cat #V9102) was added and the luminescence signal was measured with a microplate reader. The % inhibition was then used to calculate the Ki values. The average Ki values are shown in Table B, wherein “A” corresponds to Ki<10.0 nM, “B” corresponds to 10.0 nM K Ki<20.0 nM, “C” 20.0 nM K Ki<50.0 nM, “D” corresponds to 50.0 nM K Ki<100.0 nM and “E” corresponds to Ki>100.0 nM.
Target sequence in this assay (Q5S007 970-2527 limits assumed): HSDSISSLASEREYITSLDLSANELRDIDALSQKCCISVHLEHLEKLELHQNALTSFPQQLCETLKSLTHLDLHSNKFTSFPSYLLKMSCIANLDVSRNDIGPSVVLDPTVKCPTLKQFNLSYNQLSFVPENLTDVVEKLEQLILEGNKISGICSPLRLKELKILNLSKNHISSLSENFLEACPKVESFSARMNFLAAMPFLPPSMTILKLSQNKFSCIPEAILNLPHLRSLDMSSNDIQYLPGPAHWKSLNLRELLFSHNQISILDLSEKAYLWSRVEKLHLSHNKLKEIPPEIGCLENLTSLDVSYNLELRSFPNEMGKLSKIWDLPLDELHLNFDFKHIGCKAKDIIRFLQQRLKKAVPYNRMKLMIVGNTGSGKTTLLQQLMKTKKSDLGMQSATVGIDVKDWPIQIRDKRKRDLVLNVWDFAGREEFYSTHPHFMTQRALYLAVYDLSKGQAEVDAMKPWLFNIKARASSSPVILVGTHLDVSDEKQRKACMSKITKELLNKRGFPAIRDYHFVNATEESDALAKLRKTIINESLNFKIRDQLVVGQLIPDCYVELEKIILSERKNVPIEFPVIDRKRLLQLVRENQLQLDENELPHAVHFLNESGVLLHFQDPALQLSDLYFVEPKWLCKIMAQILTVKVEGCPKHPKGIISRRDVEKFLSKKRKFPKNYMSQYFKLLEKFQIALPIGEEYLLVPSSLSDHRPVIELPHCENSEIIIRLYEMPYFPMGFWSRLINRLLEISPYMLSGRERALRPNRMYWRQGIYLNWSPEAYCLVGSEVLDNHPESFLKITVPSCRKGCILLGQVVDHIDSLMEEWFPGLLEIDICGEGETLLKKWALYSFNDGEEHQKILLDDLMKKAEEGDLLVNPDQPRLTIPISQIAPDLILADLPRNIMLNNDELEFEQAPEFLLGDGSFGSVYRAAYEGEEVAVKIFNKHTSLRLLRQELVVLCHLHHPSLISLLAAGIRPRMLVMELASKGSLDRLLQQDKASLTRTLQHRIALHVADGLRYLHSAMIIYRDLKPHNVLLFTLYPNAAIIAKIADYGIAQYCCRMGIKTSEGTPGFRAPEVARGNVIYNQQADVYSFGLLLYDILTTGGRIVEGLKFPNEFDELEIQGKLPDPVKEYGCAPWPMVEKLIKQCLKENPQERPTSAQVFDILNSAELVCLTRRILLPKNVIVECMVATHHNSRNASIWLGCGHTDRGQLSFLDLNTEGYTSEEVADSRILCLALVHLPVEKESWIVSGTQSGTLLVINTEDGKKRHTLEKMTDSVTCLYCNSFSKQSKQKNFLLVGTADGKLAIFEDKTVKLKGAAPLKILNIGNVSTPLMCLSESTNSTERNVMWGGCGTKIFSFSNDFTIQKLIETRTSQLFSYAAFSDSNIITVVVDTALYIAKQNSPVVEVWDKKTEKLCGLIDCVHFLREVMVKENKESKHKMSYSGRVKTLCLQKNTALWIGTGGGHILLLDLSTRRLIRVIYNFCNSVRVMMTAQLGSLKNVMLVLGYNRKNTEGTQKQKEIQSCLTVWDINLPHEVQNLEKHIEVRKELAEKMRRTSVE

LRRK2[G2019S] [2] = molecular target: T2, LRRK2[G2019S] (Homo sapiens, UniProt Q5S007, G2019S); experiment: Enzymatic activity inhibition against LRRK2[G2019S] (ADP-Glo kinase assay, LRRKtide substrate); format: biochemical; set-up: purchased SignalChem Biotech, Inc. L10-12GG-10; conditions: recombinant LRRK2[G2019S] 36 nM, ATP, 1 h at rt, average Ki
Protocol: Example A. Primary Assays Used to Determine Potency of the LRRK2 Inhibition
Assay for Determining Enzymatic Activity Inhibition Against LRRK2[G2019S].
Compound activity was determined using recombinant LRRK2[G2019S] protein (SignalChem Biotech, Inc., Cat #L10-12GG-10) and LRRKtide substrate (SignalChem Biotech, Inc., Cat #L10-58) in an in vitro enzymatic reaction. The enzymatic reaction was carried out in assay buffer (40 mM TRIS-HCl pH 7.4, 20 mM MgCl2, 0.05 mM DTT, 0.1 mg/mL BSA). The compounds were dispensed into a 384 well Diamond Well Plate (Axigen, Cat #P-384-120SQ-C-S) using the Biomek FX liquid handling system at the 80× solutions of compounds in DMSO. The 2× Protein-Substrate mix (final concentration 36 nM of LRRK2[G2019S] and 0.8 μg/μL of LRRKtide) was prepared in 1× Assay buffer and 4 μL of mixture per well was added into the 384-well white Reaction plate with NBS (Corning, Cat #CLS4513). The 4 μL of LRRKtide substrate w/o LRRK2[G2019S] in the 1× buffer was used for a negative control. Plates were centrifuged for 1 min at 200 g. Next the compounds were added to the reaction plate using Biomek station via following steps: 1 μL of 80× compounds (in DMSO) were mixed thoroughly with 39 μL of 2×10 μM ATP in Assay Buffer, then 4 μL of this mixture was added to Reaction plate with 4 μL of Protein-Substrate mix. Plates were centrifuged for 1 min at 200 g and incubated for 1 h at rt. Then, 4 μL per well of ADP-Glo reagent (Promega, ADP-Glo™ Kinase Assay, Cat #V9102) was added. Plates were incubated for 30 min at rt. Then, 8 μL per well of Kinase detection reagent (Promega, ADP-Glo™ Kinase Assay, Cat #V9102) was added and the luminescence signal was measured with a microplate reader. The luminescence signal was detected with CLARIOstar Plus (BMG LABTECH) microplate reader. The % inhibition was then used to calculate the Ki values. The average Ki values are shown in Table A, wherein “A” corresponds to Ki<5.0 nM, “B” corresponds to 5.0 nM≤Ki<10.0 nM, “C” 10.0 nM≤Ki<50.0 nM, “D” corresponds to 50.0 nM≤Ki<100.0 nM and “E” corresponds to Ki>100.0 nM.
Target sequence in this assay (Q5S007 970-2527 G2019S limits assumed): as the sequence (Q5S007 970-2527 limits assumed) above, with G1050S counted along it

LRRK2 WT [3] = molecular target: T1, LRRK2 WT; experiment: Cell-based NanoBRET target engagement assay in HEK293 cells transfected with LRRK2 WT-NanoLuc fusion vector; set-up: expressed in transfected cells; host or cells: HEK293 (ATCC); conditions: compound treatment 1 h
Protocol: (§1) Example C. Cell-Based NanoBRET Target Engagement Assay in 11EK293 Cells Transiently Transfected with LRRK2 WT- or LRRK2 (G2019S)-Nano Luc Fusion Vector
(§2) H1EK293 (ATCC) cells were transfected with […] LRRK2 WT or LRRK2 (G2019S) and 9 μg transfection carrier DNA. The transfected cells were treated with the compounds (starting at 1 μM, 10-dose with 3-fold dilution) and reference compounds CEP-701 or Staurosporine (starting at 1 μM, 10-dose with 3-fold dilution); compound treatment time: 1 h. LRRK2 WT and LRRK2 (G2019S) target engagement was measured by NanoBRET assay. Curve fits were performed only when % NanoBret signal at the highest concentration of compounds was less than […]. Assay format: 384-well format, 4000 cells/well. The IC50 values are shown in Table C, wherein “A” corresponds to IC50≤50.0 nM, “B” corresponds to 50.0 nM≤IC50<100.0 nM, “C” corresponds to 100.0 nM≤IC50.
Target sequence in this assay (Q5S007 whole entry): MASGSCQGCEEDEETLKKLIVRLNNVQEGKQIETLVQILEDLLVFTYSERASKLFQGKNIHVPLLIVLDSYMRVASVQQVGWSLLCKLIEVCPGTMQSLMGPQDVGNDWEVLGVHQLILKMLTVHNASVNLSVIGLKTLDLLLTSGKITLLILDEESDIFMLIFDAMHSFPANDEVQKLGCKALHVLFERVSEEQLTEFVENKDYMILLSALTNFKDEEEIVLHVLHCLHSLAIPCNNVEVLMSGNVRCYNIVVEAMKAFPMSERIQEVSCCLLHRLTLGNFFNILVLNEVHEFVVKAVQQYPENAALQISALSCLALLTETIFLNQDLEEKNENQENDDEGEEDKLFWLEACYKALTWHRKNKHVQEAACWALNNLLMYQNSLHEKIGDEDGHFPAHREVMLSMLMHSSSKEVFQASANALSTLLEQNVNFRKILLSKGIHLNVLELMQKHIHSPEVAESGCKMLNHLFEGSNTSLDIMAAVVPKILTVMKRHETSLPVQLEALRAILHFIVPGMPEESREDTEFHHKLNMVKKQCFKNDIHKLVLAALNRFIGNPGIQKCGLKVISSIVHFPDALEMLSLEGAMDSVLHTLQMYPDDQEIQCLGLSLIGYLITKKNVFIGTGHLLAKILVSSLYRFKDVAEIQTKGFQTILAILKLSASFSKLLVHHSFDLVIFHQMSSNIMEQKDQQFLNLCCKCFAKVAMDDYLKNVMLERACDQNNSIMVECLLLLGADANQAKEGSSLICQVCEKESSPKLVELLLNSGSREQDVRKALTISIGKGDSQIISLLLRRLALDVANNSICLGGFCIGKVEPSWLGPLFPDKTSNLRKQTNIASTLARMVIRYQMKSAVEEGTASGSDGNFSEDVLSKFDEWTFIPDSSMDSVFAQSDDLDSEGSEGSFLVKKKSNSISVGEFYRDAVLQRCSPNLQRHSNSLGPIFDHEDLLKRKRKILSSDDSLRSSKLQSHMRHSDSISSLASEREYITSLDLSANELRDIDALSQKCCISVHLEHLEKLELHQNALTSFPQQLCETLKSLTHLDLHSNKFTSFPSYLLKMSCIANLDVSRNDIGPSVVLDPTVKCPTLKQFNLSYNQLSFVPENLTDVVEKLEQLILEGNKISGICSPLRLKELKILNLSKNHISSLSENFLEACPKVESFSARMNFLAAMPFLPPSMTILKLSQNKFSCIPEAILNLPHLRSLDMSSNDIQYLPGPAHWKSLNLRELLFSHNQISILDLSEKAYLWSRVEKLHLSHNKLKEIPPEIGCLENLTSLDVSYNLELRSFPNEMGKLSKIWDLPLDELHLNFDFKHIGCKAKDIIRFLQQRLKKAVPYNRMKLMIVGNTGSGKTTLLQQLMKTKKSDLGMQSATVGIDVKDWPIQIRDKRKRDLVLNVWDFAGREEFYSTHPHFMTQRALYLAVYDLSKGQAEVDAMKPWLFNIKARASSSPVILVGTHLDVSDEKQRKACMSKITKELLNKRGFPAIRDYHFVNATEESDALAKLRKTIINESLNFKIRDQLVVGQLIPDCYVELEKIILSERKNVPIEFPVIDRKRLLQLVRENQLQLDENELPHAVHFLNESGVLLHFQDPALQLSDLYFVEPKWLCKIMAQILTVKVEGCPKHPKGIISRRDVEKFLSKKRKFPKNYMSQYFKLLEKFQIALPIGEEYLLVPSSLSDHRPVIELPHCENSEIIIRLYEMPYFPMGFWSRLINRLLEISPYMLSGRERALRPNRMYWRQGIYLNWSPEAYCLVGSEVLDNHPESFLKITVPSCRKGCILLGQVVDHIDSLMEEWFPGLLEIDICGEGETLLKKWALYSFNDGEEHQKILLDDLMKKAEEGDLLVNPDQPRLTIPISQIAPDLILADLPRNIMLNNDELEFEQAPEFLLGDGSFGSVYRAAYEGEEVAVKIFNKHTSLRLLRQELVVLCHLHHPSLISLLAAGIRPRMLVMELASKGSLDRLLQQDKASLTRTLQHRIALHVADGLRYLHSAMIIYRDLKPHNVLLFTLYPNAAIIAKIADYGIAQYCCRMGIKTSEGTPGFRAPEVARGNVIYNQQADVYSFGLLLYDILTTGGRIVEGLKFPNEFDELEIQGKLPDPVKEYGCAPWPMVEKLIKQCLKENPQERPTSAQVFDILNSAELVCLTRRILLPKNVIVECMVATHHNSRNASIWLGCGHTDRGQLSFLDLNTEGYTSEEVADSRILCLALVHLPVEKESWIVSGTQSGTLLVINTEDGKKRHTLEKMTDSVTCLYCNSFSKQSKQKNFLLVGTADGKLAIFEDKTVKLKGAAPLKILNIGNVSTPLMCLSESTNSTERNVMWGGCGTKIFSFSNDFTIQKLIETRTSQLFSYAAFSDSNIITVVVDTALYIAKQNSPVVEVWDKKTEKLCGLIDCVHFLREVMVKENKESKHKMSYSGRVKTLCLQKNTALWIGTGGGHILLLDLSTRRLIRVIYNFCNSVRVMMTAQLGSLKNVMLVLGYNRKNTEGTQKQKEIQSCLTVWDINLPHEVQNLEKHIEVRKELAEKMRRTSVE

LRRK2[G2019S] [4] = molecular target: T2, LRRK2[G2019S]; experiment: Cell-based NanoBRET target engagement assay in HEK293 cells transfected with LRRK2 (G2019S)-NanoLuc fusion vector; set-up: expressed in transfected cells; host or cells: HEK293 (ATCC); conditions: compound treatment 1 h
Protocol: as §1, §2
Target sequence in this assay (Q5S007 whole entry G2019S): as the sequence (Q5S007 whole entry) above, with G2019S counted along it

| SMILES | Ki (LRRK2 WT [1]) [nM] | Ki (LRRK2[G2019S] [2]) [nM] | IC50 (LRRK2 WT [3]) [nM] | IC50 (LRRK2[G2019S] [4]) [nM] |
| --- | --- | --- | --- | --- |
| Cc1cc2[nH]nc(-c3cc(N4CCOCC4)c(=O)n(C)n3)c2cc1OC(C)C [Compound 26, 6-(5-isopropoxy-6-methyl-1H-indazol-3-yl)-2-methyl-4-morpholino-pyridazin-3-one] | ≤ 10 | 10 to 50 | ≥ 100 | ≥ 100 |
| CCn1nc(-c2n[nH]c3ccc(OC(C)C)cc23)cc(N2CCOCC2)c1=O [Compound 23, 2-ethyl-6-(5-isopropoxy-1H-indazol-3-yl)-4-morpholino-pyridazin-3-one] | ≤ 10 | ≤ 5 | ≥ 100 | 50 to 100 |
| CC(C)Oc1ccc2[nH]nc(-c3cc(N4CCOCC4)c(=O)n(C4CCCC4)n3)c2c1 [Compound 16, 2-cyclopentyl-6-(5-isopropoxy-1H-indazol-3-yl)-4-morpholino-pyridazin-3-one] | ≤ 10 | 5 to 10 | 50 to 100 | ≤ 50 |
| CC(C)Cn1nc(-c2n[nH]c3ccc(OC(C)C)cc23)cc(N2CCOCC2)c1=O [Compound 18, 2-isobutyl-6-(5-isopropoxy-1H-indazol-3-yl)-4-morpholino-pyridazin-3-one] | ≤ 10 | 5 to 10 | ≥ 100 | ≥ 100 |
| Cn1nc(-c2n[nH]c3ccc(OC4CC4)cc23)cc(N2CCOCC2)c1=O [Compound 30, 6-[5-(cyclopropoxy)-1H-indazol-3-yl]-2-methyl-4-morpholino-pyridazin-3-one] | ≤ 10 | ≤ 5 | ≥ 100 | ≥ 100 |
| CC(C)Oc1ccc2[nH]nc(-c3cc(N4CCOCC4)c(=O)n(C4CC4)n3)c2c1 [Compound 19, 2-cyclopropyl-6-(5-isopropoxy-1H-indazol-3-yl)-4-morpholino-pyridazin-3-one] | ≤ 10 | ≤ 5 | 50 to 100 | ≤ 50 |
| C[C@@H]1CN(c2cc(-c3n[nH]c4ccc(OC5(C)CC5)cc34)nn(C3CC3)c2=O)C[C@H](C)O1 [Compound 51, 2-cyclopropyl-4-[(2S,6R)-2,6-dimethylmorpholin-4-yl]-6-[5-(1-methylcyclopropoxy)-1H-indazol-3-yl]pyridazin-3-one] | ≤ 10 | ≤ 5 | ≤ 50 | ≤ 50 |
| CC(C)(C#N)c1ccc2cnn(-c3cnnc(N4CCCC4)c3)c2c1 [Compound 35, 2-methyl-2-[1-(6-pyrrolidin-1-ylpyridazin-4-yl)indazol-6-yl]propanenitrile] | 20 to 50 | 50 to 100 |  |  |
| Cn1nc(-c2n[nH]c3cc4c(cc23)OCCC4)cc(N2CCOCC2)c1=O [Compound 31, 2-methyl-4-morpholino-6-(1,6,7,8-tetrahydropyrano[2,3-f]indazol-3-yl)pyridazin-3-one] | 50 to 100 | > 100 |  |  |
| CC(C)Oc1ccc2[nH]nc(-c3cnnc(N4CCOCC4)c3)c2c1 [Compound 4, 4-[5-(5-isopropoxy-1H-indazol-3-yl)pyridazin-3-yl]morpholine] | ≤ 10 | ≤ 5 | 50 to 100 | ≤ 50 |
| N#CC1(c2ccc3cnn(-c4cnnc(N5CCCC5)c4)c3c2)CCCCC1 [Compound 37, 1-[1-(6-pyrrolidin-1-ylpyridazin-4-yl)indazol-6-yl]cyclohexanecarbonitrile] | > 100 | > 100 |  |  |
| CC(C)Oc1ccc2[nH]nc(-c3cnnc(N4CCOCC4)n3)c2c1 [Compound 13, 4-[5-(5-isopropoxy-1H-indazol-3-yl)-1,2,4-triazin-3-yl]morpholine] | ≤ 10 | 5 to 10 |  |  |
| CC(C)Oc1ccc2[nH]nc(-c3cc(N4CCOCC4)c(=O)n(C(C)C)n3)c2c1 [Compound 21, 6-(5-isopropoxy-1H-indazol-3-yl)-2-isopropyl-4-morpholino-pyridazin-3-one] | ≤ 10 | 5 to 10 | ≥ 100 | 50 to 100 |
| Cn1nc(-n2ncc3ccc(C4(C#N)CC4)cc32)cc(N2CCOCC2)c1=O [Compound 41, 1-[1-(1-methyl-5-morpholino-6-oxo-pyridazin-3-yl)indazol-6-yl]cyclopropanecarbonitrile] | ≤ 10 | 50 to 100 |  |  |
| Cn1nc(-c2n[nH]c3ccc(OC4CCC4)cc23)cc(N2CCOCC2)c1=O [Compound 28, 6-[5-(cyclobutoxy)-1H-indazol-3-yl]-2-methyl-4-morpholino-pyridazin-3-one] | ≤ 10 | ≤ 5 | ≥ 100 | ≥ 100 |
